Assay in all cases: growth of human tumour cells (NCI), 48 h
Test [1] deals with A549 NSCLC.
Test [2] has as its system CCRF-CEM leukemia.
In test [3] the test system is MCF7 breast.
In test [4] the test system is OVCAR-4 ovarian.
Test [5] concerns SF-295 CNS.
Test [6] concerns SK-OV-3 ovarian.
Test [7] deals with SN12C renal.
Test [8] has as its system U251 CNS.
Test [9] concerns UO-31 renal.

Molecules are shown by their SMILES. Where “and” joins values, the source holds several entries; their conditions need not be identical. Equal values may be shown once.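 Assay format: 96-well plates, 48-hour exposure. At the GI50, growth is halved. TGI denotes the concentration required for complete inhibition of growth.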

For `C[C@@H]1COCCN1c1cc(C2([S@](C)(=N)=O)CC2)nc(-c2ccnc3[nH]ccc23)n1`, the GI50 in test [1] was 3.46 µM and 4.02 µM; in test [2] it was 1.21 µM and 1.11 µM; in test [3] it was 0.417 µM and 0.611 µM; in [4] it was 2.27 µM and 3.62 µM; in test [5] it was 2.6 µM and 3.21 µM; in [6], 2.7 µM and 4.51 µM. For the same molecule, the GI50 was 5.04 µM and 9.13 µM in test [7]; 9.81 µM and 5.08 µM in [8]; 2.95 µM and 2.04 µM in test [9]. For the same molecule, the TGI in test [1] is more than 100 µM; in [2], more than 29 µM; in [3], 39 µM and > 10 µM; in test [4], 40.9 µM and > 10 µM; in test [5], 32.9 µM and > 10 µM; in test [6], 27.9 µM and > 10 µM. Besides, the TGI in test [7] is more than 100 µM; in test [8] it was more than 100 µM; in test [9] it was 32.1 µM and > 10 µM.
On to `CC12CCC3C(CCC4Cc5[nH]c6ccccc6c5CC43C)C1CCC2O` (configuration not stated), for which the GI50 is 2.63 µM in [1]; 1 µM in test [2]; 0.373 µM in test [3]; 1.35 µM in [4]; 0.3 µM in test [5]; 2.81 µM in test [6]. Moreover, the GI50 in [7] is 4.09 µM; in test [8] it was 0.646 µM; in [9], 4.37 µM. In addition, the TGI in [1] was more than 100 µM; in [2] it was 6.44 µM; in [3], more than 100 µM; in [4] it was more than 100 µM; in test [5], 3.26 µM; in [6], more than 100 µM. Also, the TGI is more than 100 µM in [7], more than 48 µM in test [8] and more than 100 µM in test [9].
As to `Clc1ccc(CSC(Cn2ccnc2)c2ccc(Cl)cc2Cl)cc1` (configuration not stated), the GI50 in test [1] was 1.42 µM; in test [2], 1.94 µM; in [3] it was 1.6 µM; in test [4], 1.37 µM; in test [5], 1.37 µM; in test [6], 1.7 µM. The GI50 in test [7] was 1.53 µM; in test [8] it was 1.39 µM; in [9], 1.38 µM. In addition, the TGI in [1] is 3.13 µM; in [2], 5.46 µM; in test [3], 2.99 µM; in test [4], 3.16 µM; in test [5], 2.89 µM; in test [6] it was 3.91 µM. Also, the values for the TGI in test [7], in test [8] and in test [9] were 2.87 µM, 2.68 µM and 4.48 µM, respectively.
As for `C=CC[n+]1c(/C=C/C=C2\N(C)c3ccccc3C2(C)C)sc2ccc(OC)cc21`, the GI50 in test [1] is 0.279 µM; in test [2], 0.287 µM; in test [3], 0.157 µM; in test [4], 0.114 µM; in test [5], 0.18 µM; in test [6], 0.21 µM. In addition, the GI50 in [7] was 0.283 µM; in [8] it was 0.293 µM; in [9], 1.53 µM. Moreover, the TGI in [1] is 16.1 µM; in [2], 12.7 µM; in test [3], 11.4 µM; in test [4], 28.5 µM; in test [5], 3 µM; in [6], 0.769 µM. For the same molecule, the TGI in [7] was 11.8 µM; in test [8], 14.4 µM; in [9] it was 8.82 µM.
As for `COc1c(C=O)c2c(c(OC)c1OC)-c1ccc(OC)c(=O)cc1[C@@H](NC(C)=O)CC2`, the TGI was more than 100 µM in [1]; more than 100 µM in test [2]; 28.4 µM in [3]; more than 100 µM in test [4]; 0.449 µM in test [5]; 23.1 µM in test [6]. The results for the TGI in test [7], in test [8] and in test [9] were more than 100 µM, more than 25.5 µM and more than 100 µM, respectively.
With `CCOC(=O)c1ccc2[nH]c(-c3ccc(S(=O)(=O)F)cc3)cc(=O)c2c1`, the TGI in test [1], in test [2], in test [3], in test [4], in [5] and in [6] was more than 100 µM throughout. The TGI in [7], in [8] and in test [9] was more than 100 µM in each case.
Regarding `O=C(O)CCNc1ccccc1C(=O)O`, the TGI in test [1], in [2], in [3], in [4], in test [5] and in test [6] was more than 100 µM each time. Further, the TGI in test [7], in test [8] and in test [9] was more than 100 µM in each case.
For `COc1cc(C(=O)/C=C/c2c(C)n([O-])c3ccc(C)cc3[n+]2=O)cc(OC)c1OC`, the GI50 in test [1] is 15.7 µM; in test [2], 2.83 µM; in test [3], 3.3 µM; in test [4], 6.68 µM; in test [5] it was 22.8 µM; in test [6], 32.7 µM. Moreover, the GI50 in test [8] was 7.74 µM; in [9], 4.63 µM. Besides, the TGI in test [1] was 82.1 µM; in [2], more than 100 µM; in test [3], 12.5 µM; in [4], 24 µM; in test [5] it was more than 68 µM; in test [6] it was more than 100 µM. In addition, the TGI in [7] came out at 35.7 µM; in [8] it was 21 µM; in test [9] it was 10.1 µM.
Take `FC(F)(F)Oc1cccc(-c2cnc3ccc(-c4ccncc4)nn23)c1`: the GI50 in [1] was 1.12 µM; in test [2], 2.03 µM; in [3], 1.56 µM; in test [4] it was 1.4 µM; in [5], 1.54 µM; in test [6] it was 0.392 µM. The GI50 in [7] is 1.56 µM; in [8] it was 0.833 µM; in test [9] it was 0.708 µM. In addition, the TGI in [1] was 9.22 µM; in test [2], 27 µM; in [3], 6.12 µM; in [4] it was 11.3 µM; in test [5], more than 100 µM; in [6] it was 2.11 µM. In addition, the TGI in [7] was more than 100 µM; in test [8] it was more than 100 µM; in test [9], 4.77 µM.
Regarding `Cc1c2cc[n+](C)cc2c(C)c2c1sc1ccccc12`, the TGI was 3.46 µM in [1]; 13.8 µM in test [2]; 41.8 µM in test [3]; 11.4 µM in test [4]; 0.783 µM in test [5]; 14.3 µM in test [6]. The TGI in [7] is 0.747 µM; in test [8], 1.15 µM; in test [9] it was more than 90.7 µM.
As to `Cc1cccc(NC(=O)CCc2ccc(N3C(N)=NC(N)=NC3(C)C)cc2)c1`, the GI50 in test [1] is 0.188 µM; in test [2] it was 1.07 µM; in [3], 1.24 µM; in test [4], 18.4 µM; in [5], 2.56 µM; in [6], more than 62.9 µM. Further, the GI50 in [7] was 0.575 µM; in test [8], 0.675 µM; in test [9], more than 100 µM. In addition, the TGI in [1] was more than 29 µM; in test [2], more than 100 µM; in test [3], more than 100 µM; in [4] it was more than 100 µM; in test [5], more than 76.3 µM; in test [6] it was more than 100 µM. Further, the TGI in test [7], in test [8] and in test [9] was more than 100 µM each time.
Take `CCCCON(OC(=O)c1ccccc1)C(=O)c1ccccc1`: the GI50 in test [1] was more than 100 µM; in [2] it was 49.8 µM; in test [3], more than 100 µM; in [4] it was more than 100 µM; in test [5] it was more than 100 µM; in [6], more than 100 µM. In addition, the GI50 in [7], in test [8] and in test [9] was more than 100 µM in each case. The TGI in test [1], in test [2], in test [3], in [4], in test [5] and in test [6] was more than 100 µM in each case. Moreover, the TGI in test [7], in [8] and in test [9] was more than 100 µM throughout.
`CC(=O)NCCc1c2c(c3nccc4c3c1Nc1ccccc1-4)OCS2`: the GI50 in test [1] was 1.29 µM; in test [2], 1.28 µM; in [3] it was 0.801 µM; in test [4], 1.92 µM; in test [5], 1.87 µM; in test [6], 1.52 µM. Also, the GI50 is 0.741 µM in [7], 1.72 µM in [8] and 1.05 µM in test [9]. Besides, the TGI in [1] is 11.3 µM; in test [3], 8.47 µM; in [4], 6.02 µM; in test [5], 15.1 µM; in test [6] it was 18.8 µM; in test [7] it was 4.79 µM. The results for the TGI in [8] and in test [9] were 15.7 µM and 6.37 µM, respectively.
Consider `Cn1cc(-c2ccc3c(Nc4cccc(NC(=O)Nc5cccc(F)c5)c4)ncnc3c2)cn1`, for which the GI50 in [1] is 1.85 µM; in test [2], 0.0474 µM; in test [3], 1.14 µM; in test [4], 1.85 µM; in [5], 1.81 µM; in test [6], 0.61 µM. Also, the GI50 in [7] was 1.6 µM; in test [8], 1.79 µM; in test [9], 2.09 µM. Moreover, the TGI in test [1] was 17.9 µM; in test [2], 13.7 µM; in [3], 5.07 µM; in test [4], 4.41 µM; in test [5], 8.42 µM; in test [6], 13.1 µM. Moreover, the figures for the TGI in test [7], in test [8] and in test [9] were 4.29 µM, 5.07 µM and 13.7 µM, respectively.
Turning to `COc1ccc2[nH]c(=O)c3c4ccccc4cn3c2c1`, the GI50 is 0.554 µM in test [1]; 0.322 µM in [2]; 0.153 µM in test [3]; 0.532 µM in [4]; 0.393 µM in test [5]; 0.451 µM in [6]. In addition, the GI50 in test [7] is 0.6 µM; in test [8], 0.388 µM; in [9], 0.689 µM. The TGI in [1] came to 2.77 µM; in test [2], 1.48 µM; in test [3], 0.969 µM; in test [4] it was 2.78 µM; in test [5], 1.71 µM; in test [6] it was 11.5 µM. The TGI in test [7] turned out to be 7.17 µM; in test [8] it was 1.55 µM; in test [9], 4.73 µM.
`CC[C@]12CCCN3CCc4c(n(c5ccccc45)C(=O)C1)[C@@H]32`: the TGI is more than 100 µM in test [1]; 33.1 µM in [2]; more than 100 µM in [3]; more than 76.3 µM in test [4]; 18.4 µM in [5]; 87.7 µM in test [6]. The values for the TGI in [7], in [8] and in test [9] were more than 100 µM, more than 52.2 µM and more than 100 µM, respectively.
For the molecule `C/C(=N\NC(=O)c1sc(=S)n(C)c1N)c1cc2ccccc2o1`, the GI50 in [1] was 7.68 µM; in [2] it was 10.6 µM; in test [3] it was 12.3 µM; in test [4], 17.9 µM; in test [5], 14.4 µM; in test [6], 20.9 µM. Besides, the GI50 in test [7] was 17.6 µM; in [8], 13.6 µM; in [9], 18.3 µM. Moreover, the TGI was 20.2 µM in test [1]; 31 µM in test [2]; 30.4 µM in test [3]; 64.2 µM in test [4]; 30 µM in test [5]; 55.6 µM in test [6]. The TGI in test [7] was determined as 55.6 µM; in test [8], 29 µM; in test [9], 37.8 µM.
Turning to `Nc1ccc2c(c1)C(=O)C(=O)c1c-2nc2ccccn12`, the GI50 in [1] is 1.62 µM; in test [2], 1.77 µM; in test [3], 1.06 µM; in [4], 1.23 µM; in [5], 1.53 µM; in [6], 2.64 µM. Moreover, the GI50 in test [7] is 1.08 µM; in test [8], 1.28 µM; in [9] it was 1.28 µM. The TGI amounted to 3.54 µM in test [1]; 5.27 µM in test [2]; 3.07 µM in test [3]; 2.49 µM in test [4]; 2.89 µM in [5]; 7.62 µM in test [6]. In addition, the figures for the TGI in test [7], in test [8] and in test [9] were 2.48 µM, 2.58 µM and 2.64 µM, respectively.

The record behind these values is PubChem BioAssay (NCI).
